Measured values published in patent US20150017673A1, “COMPOSITIONS AND METHODS FOR DRUG-SENSITIZATION OR INHIBITION OF A CANCER CELL” (priority 2012, published 2015).
Like-named read-outs stand apart in the source and are kept apart here.

Legend:
lymphoma cell line G3 = test: Cell growth assay (resazurin fluorescence) on CHOP-resistant G3 NHL cells; assay type: cell-based, human; settings: for IC50: Homo sapiens
Method in brief: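 CHOP-resistant G3 NHL cells grown five days in RPMI medium were counted by haemocytometer and set to 625,000 cells/ml. They were then added to plates holding test drug, first dissolved in 100% DMSO and diluted in 0.1M PBS to 0.5% final DMSO. Plates incubated 96 hours at 37° C. and 5% CO2. Resazurin at 20 μg/ml was added for a further 24 hours, and plates were read on a BMG Polarstar at 573-605.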

[1] = test system: CHOP-sensitive NHL cell line CRL2631; test: Cell growth assay (resazurin) on CHOP-sensitive CRL2631 NHL cells; assay type: cell-based, human; settings: CRL2631; for IC50: Homo sapiens
[2] = test system: multi-drug resistant ovarian cancer cell line NCI/ADR-RES; test: Cell growth assay on NCI/ADR-RES cells; assay type: cell-based; settings: ADR-RES; for IC50: Homo sapiens, NCI/ADR-RES
[3] = test system: T lymphoblastoid leukemia MOLT-4; test: Cell growth assay on MOLT-4 cells; assay type: cell-based; settings: for IC50: Homo sapiens
Protocol: Compositions were tested on CHOP-resistant G3 NHL cells that had been cultivated in RPMI medium for five days. Prior to assay, the cells were counted by haemocytometer and cell concentration standardized to 625,000 cells/ml. Test drugs were solubilized in 100% DMSO and then diluted to final assay concentration with 0.1M phosphate buffered saline (PBS) and a final DMSO concentration of 0.5%. Cells were added to assay plates containing the test drugs (rifabutin+148 ng/ml, 74 ng/ml, 37 ng/ml, or 0 ng/ml doxorubicin) and allowed to incubate for 96 hours at 37° C. and 5% CO2. The metabolic dye rezasurin was added to the wells of the assay plate at a final concentration of 20 μg/ml and the plates were incubated for an additional 24 hours. The plates were then read in a BMG Polarstar plate reader at wavelength (573-605) and the data plotted as OD versus increasing dilutions (i.e. decreasing total amounts) of rifabutin derivative concentration.
Additional cell lines used include: ovarian cancer OVCAR-8, T lymphoblastoid leukemia MOLT-4, dexamethasone-resistant multiple myeloma MM.1R, myeloid leukemia cells HL-60, osteosarcoma cells U-2 OS, and myeloma RPMI 8226.

[4] = test system: G3 CHOP-resistant NHL cells; settings: fourth study; doxorubicin only group
Protocol: In a first efficacy study, 6-8 week old female SCID mice (7 mice per treatment arm) were injected subcutaneously on both flanks with 1×10^7 G3 CHOP-resistant NHL cells. Once palpable tumors (about […] size) appeared, therapies (CHOP or CHOP+rifabutin) were started. CHOP was administered at the maximum tolerated dose (cyclophosphamide, 40 mg/kg i.v.; doxorubicin, 3.3 mg/kg i.v.; vincristine, 0.5 mg/kg i.v.; and prednisone, 0.2 mg/kg orally daily for 5 d) weekly for 3 weeks. Rifabutin in an amount of 100 mg/kg was administered on the day of each CHOP treatment and 24-hours later by gavage. Mouse body weight and tumor size were monitored every two days and tumor size measured by caliper. The tumor volume formula (L*W*W)/2 was used to calculate tumor mass.
A second efficacy study was conducted where mice were treated before the appearance of palpable tumors. In that experiment, one week after transplantation of CHOP-resistant G3 cells, one group (7 mice) was treated with CHOP-only and a second group (8 mice) was treated with CHOP+rifabutin.
A third study was conducted in which mice injected with CHOP-resistant G3 cells received reduced dosages of CHOP in combination with 33 mg/kg rifabutin. CHOP+rifabutin was administered weekly beginning one week post-inoculation. Control mice were given no CHOP or rifabutin.
SCID mice were injected with CHOP-resistant G3 cells in the same manner as the first efficacy study above. Treatments began 2 weeks post-inoculation and were administered twice weekly.

[5] = test system: human ovarian cancer cell line SK-OV-3; test: SK-OV-3 xenograft efficacy study in SCID mice; assay type: in vivo; settings: after 19 days treatment; DOX only 3.3 mg/kg i.v. weekly
Protocol: In a fifth efficacy study, we generated xenografts of the human ovarian cancer cell line SK-OV-3, a cell line considered doxorubicin-resistant, by bilateral subcutaneous (s.c.) injection of 1×10^7 tumor cells to establish localized tumors in 6-8 week old female SCID mice. Using rifabutin co-administered with DOX, in vivo efficacy was assessed. […] Cycles of Dox or Dox+rifabutin were given once a week for 4 cycles. This cyclical dosing scheme of mouse models has precedent in the literature and is intended to mimic the cycles of DOXIL® (Centocor Ortho Biotech Products, LP, Raritan, N.J.) given in the clinic. Rifabutin was administered on the day of each DOX treatment and by gavage. Mouse body weight and tumor size were monitored.

[6] = after administration; cited from earlier work
[7] = therapeutic drug alone, read-out: IC50
[8] = therapeutic drug with Rifabutin, read-out: IC50 (μM) with Rifabutin

COc1cccc2c1C(=O)c1c(O)c3c(c(O)c1C2=O)C[C@@](O)(C(=O)CO)C[C@@H]3O[C@H]1C[C@H](N)[C@H](O)[C@H](C)O1 [Doxorubicin, doxorubicin]
IC50 (lymphoma cell line G3; analog alone, lymphoma cell line G3, read-out: IC50): 2.36 µM | IC50 (lymphoma cell line G3; therapeutic drug with Rifabutin, G3, read-out: IC50 (μM) with Rifabutin): 0.25 µM | Fold increase in potency (lymphoma cell line G3; with vs without Rifabutin, G3): 9.4 fold | IC50 [1, 7]: 0.35 µM | IC50 [1, 8]: 0.12 µM | Fold increase in potency ([1]; with vs without Rifabutin): 2.9 fold | IC50 [2, 7]: > 32 µM | IC50 [2, 8]: 6.59 µM | Fold increase in potency ([2]; with vs without Rifabutin): >4.9 fold | IC50 [3, 7]: 0.03 µM | IC50 [3, 8]: 0.01 µM | Fold increase in potency ([3]; with vs without Rifabutin): 3 fold | mean lifespan [4]: 34.6 | median lifespan [4]: 33 | times as likely to die before those treated with doxorubicin+RTI-81 [4]: 10.37 times | average tumor volume [5]: 587 mm^3 | time of maximal tissue absorption [6]: 48 h
